Assay results from patent US20250387504A1, “ANTIBODY-DRUG CONJUGATES OF ANTINEOPLASTIC COMPOUNDS AND METHODS OF USE THEREOF” (Novartis AG, priority 2022, published 2025).

Legend:
lymphoid malignancies = settings: cited from earlier work
[1] = tested on: hematological malignancies and solid tumors; settings: several hematological malignancies and solid tumors; cited from earlier work
[2] = tested on: T-ALL (T-cell Acute Lymphoblastic Leukemia) and different types of solid tumors; settings: cited from earlier work
KMS-27 [3] = test: CellTiter-Glo proliferation assay, CD48 MCL-1/BCL-xL and BCL-xL ADCs (Example 6); type: cell-based; settings: Table 3 CD48 ADC, 5 days; for IC50: KMS-27, 120 h, 0.01-600 nM
Protocol: (§1) The next day, free MCL-1 payload (P1), free BCL-xL payload (P5 and P6) and targeting MCL-1 and BCL-xL ADCs and targeting BCL-xL ADCs were prepared at 10X in standard growth media. […] Each drug concentration was tested in quadruplets.

Kasumi-6 = test: CellTiter-Glo proliferation assay, CD74 MCL-1/BCL-xL and BCL-xL ADCs (Example 6); type: cell-based; settings: Table 4 CD74 ADC, 5 days; for IC50: 120 h, 0.01-600 nM
Protocol: (§2) The CD74 MCL-li and BCL-xLi antibody drug conjugates and the CD74 BCL-xL antibody drug conjugates were tested against two endogenous cancer cell lines. • Kasumi-6: ATCC No. CRL-2775 cultured in RPMI 1640 medium with 2 mM L-glutamine adjusted to contain 1.5 g/L sodium bicarbonate, 4.5 g/L glucose, 10 mMv HEPES, and 1.0 mM sodium pyruvate supplemented with 2 ng/ml human recombinant granulocyte macrophage colony stimulating factor (GM-CSF) and 20% FBS • EOL-1: DSMZ No. ACC-386 cultured in RPMI-1640+10% FBS
as §1

EOL-1 [4] = test: as above; type: cell-based; settings: Table 4 CD74 ADC, 5 days; for IC50: Homo sapiens, EOL1, 120 h, 0.01-600 nM
Protocol: as §2, §1

KHM-1B = test: CellTiter-Glo proliferation assay, CD48 MCL-1 and BCL-2 ADCs (Example 4); settings: 120 h, read-out: KHM-1B IC50 (nM)
Protocol: (§3) The ability of the MCL-1 and BCL-2 antibody drug conjugates to inhibit cell proliferation and survival was assessed using the Promega CellTiter-Glo® proliferation assay.
(§4) Cell lines were cultured in media that is optimal for their growth at 5% CO2, 37° C. in a tissue culture incubator. Prior to seeding for the proliferation assay, the cells were split at least 2 days before the assay to ensure optimal growth density. On the day of seeding, cell viability and cell density were determined using a cell counter (Vi-Cell XR Cell Viability Analyzer, Beckman Coulter). […] Cells were seeded at a density of 1,000 cells per well in 45 μL of standard growth media. Plates were incubated at 5% CO2, 37° C. overnight in a tissue culture incubator. The next day, free MCL-1 and BCL-2 payloads, targeting MCL-1 and BCL-2 ADCs, and non-targeting isotype ADCs free MCL-1 and BCL-2 payloads, were prepared at 10× in standard growth media. […] Each drug concentration was tested in quadruplets. Plates were incubated at 5% CO2, 37° C. for 5 days in a tissue culture incubator, after which cell viability was assessed through the addition of 25 L μof CellTiter Glo® (Promega, cat #G7573), a reagent which lyses cells and measures total adenosine triphosphate (ATP) content. Plates were incubated at room temperature for 10 minutes to stabilize luminescent signals prior to reading using a luminescence reader (EnVision Multilabel Plate Reader, PerkinElmer). To evaluate the effect of the drug treatments, luminescent counts from wells containing untreated cells (100% viability) were used to normalize treated samples. […] IC50 and Amax values were extrapolated from the resultant curves.

RL = test: as above; settings: Homo sapiens, 120 h, read-out: RL IC50 (nM)
Protocol: as §3, §4

KE-97 = test: as above; settings: KE-97, 120 h, read-out: Ke97 IC50 (nM)
Protocol: as §3, §4

MOLP-8 = test: as above; settings: Homo sapiens, MOLP-8, 120 h, read-out: MOLP-8 IC50 (nM)
Protocol: as §3, §4

NCI-H929 = test: as above; settings: Homo sapiens, NCI-H929, 120 h, read-out: NCI-H929 IC50 (nM)
Protocol: as §3, §4

WSU-DLCL2 = test: as above; settings: Homo sapiens, WSUDLCL2, 120 h, read-out: WSU-DLCL2 IC50 (nM)
Protocol: as §3, §4

KMS-21-BM = test: as above; settings: 120 h, read-out: KMS-21-BM IC50 (nM)
Protocol: as §3, §4

KMS-27 [5] = test: as above; settings: KMS-27, 120 h, read-out: KMS-27 IC50 (nM)
Protocol: as §3, §4

AMO-1 [6] = test: as above; settings: Homo sapiens, AMO1, 120 h, read-out: AMO-1 IC50 (nM)
Protocol: as §3, §4

AMO-1 [7] = test: CellTiter-Glo proliferation assay, CD48 MCL-1/BCL-xL and BCL-xL ADCs (Example 6); type: cell-based; settings: Table 3 CD48 ADC, 5 days
Protocol: as §1

[8] = tested on: cancer cell lines expressing CD48, CD74, EphA2, Her2 and PCAD; test: CellTiter-Glo proliferation assay, summary over the Example 6 cell lines; type: cell-based; settings: representative CD48 and CD74 cancer cell lines; read-out: IC50 values range
Protocol: as §2
The EphA2 antibody drug conjugates were tested against one endogenous cancer cell line. • HCC-38: ATCC No. CRL-2314 cultured in RPMI-1640+10% FBS
as §1

EOL-1 [9] = test: CellTiter-Glo proliferation assay, CD74 Milatuzumab MCL-1i and BCL2i ADCs (Example 5); type: cell-based; settings: EOL-1, 5 days, 0.008-150 nM
Protocol: The CD74 Milatuzumab […] […] The next day, free MCL-1 payload (P1) and targeting MCL-1 and BCL-2 ADCs were prepared at 10X in standard growth media. […] Each drug concentration was tested in quadruplets.

allogeneic T-cell = settings: in vitro; cited from earlier work
[10] = tested on: animal models of arthritis and lupus; settings: mice; cited from earlier work
[11] = tested on: allogeneic T- and B-cell responses; settings: after skin transplantation; cited from earlier work
lymphocyte proliferation = settings: in vitro; cited from earlier work
TROP2 (human) = TROP2 (human) (UniProt P09758); test: cell-based or functional assay
HER2 = HER2 (UniProt P04626); test: cell-based or functional assay

Sequence of TROP2 (human) (P09758 27-323): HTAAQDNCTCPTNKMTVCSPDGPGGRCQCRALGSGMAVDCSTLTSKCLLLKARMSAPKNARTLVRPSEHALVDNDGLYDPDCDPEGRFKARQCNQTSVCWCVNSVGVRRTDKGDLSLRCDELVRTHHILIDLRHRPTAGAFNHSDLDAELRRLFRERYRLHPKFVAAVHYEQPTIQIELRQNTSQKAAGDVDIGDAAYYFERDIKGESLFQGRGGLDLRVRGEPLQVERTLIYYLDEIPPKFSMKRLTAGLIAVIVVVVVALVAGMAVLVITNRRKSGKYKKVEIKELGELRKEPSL

Molecule | IC50 (KHM-1B) | IC50 (RL) | IC50 (KE-97) | IC50 (MOLP-8) | IC50 (NCI-H929) | IC50 (WSU-DLCL2) | IC50 (KMS-21-BM) | IC50 (KMS-27 [5]) | IC50 (AMO-1 [6]) | also measured
CC1(C)CCC(c2ccc(Cl)cc2)=C(CN2CCN(c3ccc(C(=O)NS(=O)(=O)c4ccc(N[C@H](CCN5CCOCC5)CSc5ccccc5)c(S(=O)(=O)C(F)(F)F)c4)cc3)CC2)C1 [ABT-263, navitoclax] | – | – | – | – | – | – | – | – | – | antitumor activity in clinical studies (lymphoid malignancies): objective antitumor activity; activity in pre-clinical models [1]: shown activity
CN(C)CC#Cc1ccc(OCCCc2sc(N3CCc4cccc(C(=O)Nc5nc6ccccc6s5)c4C3)nc2C(=O)O)c(F)c1 [A-1155463] | – | – | – | – | – | – | – | – | – | in vivo activity in pre-clinical models [2]: in vivo activity
Cc1c(Nc2nc3ccccc3s2)nnc2c1CCCN2c1ccc(-c2cnn(CC34CC5(C)CC(C)(C3)CC(OCCNCCCO)(C5)C4)c2C)c(C(=O)O)n1 [P5, 6-[3-(1,3-benzothiazol-2-ylamino)-4-methyl-6,7-dihydro-5H-pyrido[2,3-c]pyridazin-8-yl]-3-[1-[[3-[2-(3-hydroxypropylamino)ethoxy]-5,7-dimethyl-1-adamantyl]methyl]-5-methyl-pyrazol-4-yl]pyridine-2-carboxylic acid] | – | – | – | – | – | – | – | – | – | IC50 (KMS-27 [3]): < 5 nM; IC50 (Kasumi-6): 11.9 nM; Kasumi-6 Amax (Span) (Kasumi-6): 84.5; IC50 (EOL-1 [4]): 0.488 nM; EOL-1 Amax (Span) (EOL-1 [4]): 94.9
Cc1c(N(C(=O)c2cc(-c3cc4c(cc3C(=O)N3Cc5ccccc5C[C@H]3C)CN(C(=O)Cc3ccc(OCCN5CCOCC5)cc3)CC4)n(C)c2C)c2ccc(O)cc2)cc(C#N)n1C [P4, N-(5-cyano-1,2-dimethyl-1H-pyrrol-3-yl)-N-(4-hydroxyphenyl)-1,2-dimethyl-5-{7-[(3R)-3-methyl-1,2,3,4-tetrahydroisoquinoline-2-carbonyl]-2-(2-{4-[2-(morpholin-4-yl)ethoxy]phenyl}acetyl)-1,2,3,4-tetrahydroisoquinolin-6-yl}-1H-pyrrole-3-carboxamide] | > 10 nM | 1.26 nM | > 250 nM | > 250 nM | > 250 nM | 4.17 nM | > 100 nM | 0.999 nM | > 250 nM | –
Cc1c(N(C(=O)c2cc(-c3cc(Cl)ccc3C(=O)N3Cc4ccccc4C[C@H]3CCCN(C)C)n(C)c2C)c2ccc(O)cc2)cc(C#N)n1C [P2, 5-[5-chloro-2-[(3R)-3-[3-(dimethylamino)propyl]-3,4-dihydro-1H-isoquinoline-2-carbonyl]phenyl]-N-(5-cyano-1,2-dimethyl-pyrrol-3-yl)-N-(4-hydroxyphenyl)-1,2-dimethyl-pyrrole-3-carboxamide] | > 10 nM | 6.26 nM | > 250 nM | > 250 nM | > 250 nM | 3.77 nM | > 100 nM | 0.316 nM | > 250 nM | –
COc1ccccc1-c1nccc(COc2ccccc2C[C@@H](Oc2ncnc3sc(-c4ccc(F)cc4)c(-c4ccc(OCCN5CCN(C)CC5)c(Cl)c4C)c23)C(=O)O)n1 [P1] | 1.62 nM | > 250 nM | > 250 nM | 6.17 nM | 5.17 nM | 41.1 nM | 1.66 nM | 13.3 nM | 4.7 nM | IC50 (KMS-27 [3]): 5.23 nM; KMS-27 Amax (Span) (KMS-27 [3]): 96.7; IC50 (AMO-1 [7]; Homo sapiens, AMO1, 120 h, 0.01-600 nM): 3.8 nM; AMO-1 Amax (Span) (AMO-1 [7]): 95.8; IC50 [8]: 0.685 to 36 nM; Amax (Span) (EOL-1 [9]): 88.6; IC50 (EOL-1 [9]; Homo sapiens, EOL1, 120 h): 0.338 nM; IC50 (Kasumi-6): 36 nM; Kasumi-6 Amax (Span) (Kasumi-6): 111.4; IC50 (EOL-1 [4]): 0.685 nM; EOL-1 Amax (Span) (EOL-1 [4]): 98.4
Cc1c(Nc2nc3ccccc3s2)nnc2c1CCCN2c1nc(C(=O)O)c(CCCOc2ccc(C#CCN(C)C)cc2F)s1 [P6, 2-[3-(1,3-Benzothiazol-2-ylamino)-4-methyl-6,7-dihydro-SH-pyrido[2,3-c]pyridazin-8-yl]-5-[3-[4-[3-(dimethylamino)prop-1-ynyl]-2-fluoro-phenoxy]propyl]thiazole-4-carboxylic acid] | – | – | – | – | – | – | – | – | – | IC50 (KMS-27 [3]): 7.89 nM; KMS-27 Amax (Span) (KMS-27 [3]): 93.7; IC50 (Kasumi-6): < 10 nM; IC50 (EOL-1 [4]): < 10 nM
Cc1c(C(=O)N(c2ccc(O)cc2)c2cnn(C(F)F)c2)cc(-c2cc3c(cc2C(=O)N2Cc4ccccc4C[C@H]2C)CN(C(=O)Cc2ccc(OCCN4CCOCC4)cc2)CC3)n1C [P3] | > 10 nM | 11.8 nM | > 250 nM | > 250 nM | > 250 nM | 5.41 nM | > 100 nM | 3.91 nM | > 250 nM | –
Cc1c(-c2ccc(N3CCc4cccc(C(=O)Nc5nc6ccccc6s5)c4C3)nc2C(=O)O)cnn1CC12CC3CC(CC(C3)C1)C2 [A-1331852] | – | – | – | – | – | – | – | – | – | in vivo activity in pre-clinical models [2]: in vivo activity
CN(C)CC[C@H](CSc1ccccc1)Nc1ccc(S(=O)(=O)NC(=O)c2ccc(N3CCN(Cc4ccccc4-c4ccc(Cl)cc4)CC3)cc2)cc1[N+](=O)[O-] [ABT-737] | – | – | – | – | – | – | – | – | – | allogeneic T-cell activation, proliferation, and cytotoxicity (allogeneic T-cell): prevented; disease severity [10]: significant decrease in disease severity; allogeneic T- and B-cell responses [11]: inhibited; inhibition of lymphocyte proliferation (lymphocyte proliferation): potent inhibition
Datopotamab-P5-L12-P7 (antibody, INN chains, looked up, V domains shown, BCLxLi/TOPOi dual drug-linker P5-L12-P7) VH: QVQLVQSGAEVKKPGASVKVSCKASGYTFTTAGMQWVRQAPGQGLEWMGWINTHSGVPKYAEDFKGRVTISADTSTSTAYLQLSSLKSEDTAVYYCARSGFGSSYWYFDVWGQGTLVTVSS VL: DIQMTQSPSSLSASVGDRVTITCKASQDVSTAVAWYQQKPGKAPKLLIYSASYRYTGVPSRFSGSGSGTDFTLTISSLQPEDFAVYYCQQHYITPLTFGQGTKLEIK | – | – | – | – | – | – | – | – | – | IC50 (nM), NCI-H441 (TROP2 (human)): 0.692 nM
Datopotamab-mono-L3-P8 (antibody, INN chains, looked up, V domains shown, TOPOi mono-loaded drug-linker L3-P8) VH: QVQLVQSGAEVKKPGASVKVSCKASGYTFTTAGMQWVRQAPGQGLEWMGWINTHSGVPKYAEDFKGRVTISADTSTSTAYLQLSSLKSEDTAVYYCARSGFGSSYWYFDVWGQGTLVTVSS VL: DIQMTQSPSSLSASVGDRVTITCKASQDVSTAVAWYQQKPGKAPKLLIYSASYRYTGVPSRFSGSGSGTDFTLTISSLQPEDFAVYYCQQHYITPLTFGQGTKLEIK | – | – | – | – | – | – | – | – | – | IC50 (nM), NCI-H441 (TROP2 (human)): < 5 nM
Disitamab-P5-L12-P7 (antibody, INN chains, looked up, V domains shown, BCLxLi/TOPOi dual payload P5-L12-P7) VH: EVQLVQSGAEVKKPGATVKISCKVSGYTFTDYYIHWVQQAPGKGLEWMGRVNPDHGDSYYNQKFKDKATITADKSTDTAYMELSSLRSEDTAVYFCARNYLFDHWGQGTLVTVSS VL: DIQMTQSPSSVSASVGDRVTITCKASQDVGTAVAWYQQKPGKAPKLLIYWASIRHTGVPSRFSGSGSGTDFTLTISSLQPEDFATYYCHQFATYTFGGGTKVEIK | – | – | – | – | – | – | – | – | – | IC50 (nM), inhibition of cell proliferation and survival (CellTiter-Glo), UACC-812 cells (HER2): 0.191 nM
